Target: Beta-secretase 1 (Homo sapiens, UniProt P56817)
Assay: Inhibition of human recombinant BACE1 expressed in Escherichia coli BL21(DE3) using Biotin-XSEVNLDAEFRHDSGC-Eu as substrate after 3 hrs by HTRF assay

Beta-secretase 1, sequence (P56817 whole entry): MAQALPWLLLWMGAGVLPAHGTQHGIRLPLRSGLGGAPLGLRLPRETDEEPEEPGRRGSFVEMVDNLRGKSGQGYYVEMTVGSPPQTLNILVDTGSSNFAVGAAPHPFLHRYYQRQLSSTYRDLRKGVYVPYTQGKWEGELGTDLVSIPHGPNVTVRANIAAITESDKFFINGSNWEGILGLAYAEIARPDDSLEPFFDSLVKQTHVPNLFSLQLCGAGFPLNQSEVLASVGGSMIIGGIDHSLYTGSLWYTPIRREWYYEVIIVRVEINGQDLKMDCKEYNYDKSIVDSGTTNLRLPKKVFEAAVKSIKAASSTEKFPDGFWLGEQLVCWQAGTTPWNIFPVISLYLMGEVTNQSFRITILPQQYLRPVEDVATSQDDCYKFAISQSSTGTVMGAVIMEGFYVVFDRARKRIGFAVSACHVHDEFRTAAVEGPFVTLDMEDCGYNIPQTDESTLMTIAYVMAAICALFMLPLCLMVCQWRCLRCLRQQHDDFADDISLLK

Compound	IC50
Cc1cccc(-c2cccc([C@@H]3C[C@@H]3c3cc(=O)n(C)c(N)n3)c2)c1	74.9 µM
Cc1cccc(CCc2cccc([C@@H]3C[C@@H]3c3cc(=O)n(C)c(N)n3)c2)c1	> 200 µM
COc1cccc(CCc2cccc([C@@H]3C[C@@H]3c3cc(=O)n(C)c(N)n3)c2)c1	100 µM
Cn1c(N)nc([C@H]2C[C@H]2c2cccc(-c3cccc(N)c3)c2)cc1=O	> 200 µM
Cn1c(N)nc([C@H]2C[C@H]2c2cccc(Cc3ccccc3)c2)cc1=O	> 200 µM
Cn1c(N)nc([C@H]2C[C@H]2c2cccc(CCc3ccccc3)c2)cc1=O	22.2 µM
CSc1cccc(-c2cccc([C@@H]3C[C@@H]3c3cc(=O)n(C)c(N)n3)c2)c1	47.5 µM
Cc1ccc(CCc2cccc([C@@H]3C[C@@H]3c3cc(=O)n(C)c(N)n3)c2)cc1	> 200 µM
Cn1c(N)nc([C@H]2C[C@H]2c2cccc(-c3cccc(F)c3)c2)cc1=O	72.4 µM
COc1ccc(-c2cccc([C@@H]3C[C@@H]3c3cc(=O)n(C)c(N)n3)c2)cc1	30.8 µM
Cn1c(N)nc([C@H]2C[C@H]2c2cccc(CCCc3ccccc3)c2)cc1=O	> 200 µM
CN(C)c1cccc(-c2cccc([C@@H]3C[C@@H]3c3cc(=O)n(C)c(N)n3)c2)c1	> 200 µM
Cn1c(N)nc([C@H]2C[C@H]2c2cccc(/C=C/c3ccccc3)c2)cc1=O	> 200 µM
CCOc1cccc(-c2cccc([C@@H]3C[C@@H]3c3cc(=O)n(C)c(N)n3)c2)c1	39.4 µM
Cc1ccccc1CCc1cccc([C@@H]2C[C@@H]2c2cc(=O)n(C)c(N)n2)c1	120 µM
Cn1c(N)nc([C@H]2C[C@H]2c2cccc(C#Cc3ccccc3)c2)cc1=O	> 200 µM
Cn1c(N)nc(CCc2cccc(CCc3ccccc3)c2)cc1=O	> 200 µM
COc1cncc(-c2cccc([C@@H]3C[C@@H]3c3cc(=O)n(C)c(N)n3)c2)n1	84.9 µM

From ChEMBL document CHEMBL2380213, “Conformational restriction approach to BACE1 inhibitors II: SAR study of the isocytosine derivatives fixed with a cis-cyclopropane ring” (Bioorg Med Chem Lett, 2013)
